Measured values taken from US10294272B2, “Peptides with antagonistic activities against natural CXCR4” (Pharis Biotec GmbH, priority 2013, dated 2019).
No end group written: not given here.

Experiments:
[1] = tested on: TZM-bl cells or prestimulated PBMCs
Procedure: To assess cytotoxic effects TZM-bl cells or prestimulated PBMCs were incubated with increasing concentrations of peptides. Cell viability was determined using the CellTiter-Glo Luminescent Cell Viability Assay (PROMEGA, G7571) as recommended by the manufacturer. Values were derived from triplicate measurements. Vitality rates were calculated relative to ATP levels in PBS (no peptide) containing cells (100%). Data were recorded using a luminometer 10 minutes after adding reagent.

Jurkat T cells = assay: CXCL12-induced migration of Jurkat T cells; assay type: cell-based
Procedure: Migration of Jurkat cells (ATCC) was analyzed using 6.5 mm diameter chambers with 5 μm pore filters (Transwell, 24-well cell culture, Coster, Boston, Mass.). 2×10^5 Jurkat cells were suspended in 200 μl Optimizer T-Cell Expansion SFM, and the cell suspensions were added to the upper chamber. Then, 10 nM CXCL12 (R&D System) and/or various concentrations of the peptide of SEQ ID NO 16 or its derivatives in 600 μl T-Cell Expansion SFM were added to the lower chamber. The cell culture chambers were incubated for 150 min in a cell culture incubator at 37° C. After incubation, chambers were removed, 100 μl of supernatants were taken and cells that migrated into the lower compartment were either counted directly using a hemocytometer or analyzed using the CellTiter-Glo Luminescent Cell Viability Assay as described above. All values represent mean numbers of migrated cells relative to CXCL12 only treated cells from a triplicate experiment±SD.

[2] = Transplantation of mobilized cells; assay type: in vivo
Procedure: […] animals were injected with the peptide of SEQ ID NO 16 (2 mg i.p in saline) or controls saline. Peripheral blood was individually harvested 1 hour post injection, counted, combined and competitively transplanted (660 μl blood equivalent) alongside 4×10^5 C57BL/6 CD45.1 BM cells into C57BL/6 Cd45.1 recipients.

Candida albicans = assay: Antifungal activity against Candida; assay type: cell-based
CXCR4 = biological target: T1, CXCR4 (Mus musculus, UniProt P70658); assay: Progenitor cell mobilization in mice; assay type: in vivo; conditions: single i.p. administration
T1 construct: from tissue; host or cells: live mice (C57Bl/6J for mobilization)
Procedure: C57B1/6J mice (Janvier, Le Genest St. Isle, F R) were housed in the conventional vivarium of the Goethe-University Medical Center, Frankfurt, with food and water ad libitum. Mice received i.p. injections of 200 μL water or normal saline containing 10 mg/mL the peptide of SEQ ID NO 16. Blood was drawn at the indicated times following injection from the check pouch after careful skin disinfection. After hypotonic lysis, leukocytes were incubated in duplicate in cytokine-replete commercially available semi-solid media (3434, Stem Cell Technologies, Vancouver, B C) under standard conditions. CFU—C were scored on day 7, as described (Bönig et al., 2006). CFU—C were normalized to the blood volume incubated. All animal studies were done with permission of the local IACUC, in agreement with AAALAC guidelines.

[3] = tested on: wild-type (wt) HIV-1 NL4-3 in PBMCs; assay: PBMC infection assay; assay type: cell-based; conditions: concentrations ≥4 μg/ml
Procedure: Peripheral blood mononuclear cells were isolated from Buffy coat derived from the DRK-Blutspendedienst Baden-Württemberg-Hessen using Ficoll density centrifugation. 1×10^6 PBMC per ml were stimulated with 1 μg/ml phytohemagglutinine (PHA, Oxoid, #3085280) and 10 ng/ml Interleukin 2 (IL-2, Strathmann, #9511192) for three days. Thereafter, cells were pelleted and resuspended in IL-2 containing medium. 2×10^5 PBMC were seeded in 96 well F-bottom microtiter plates, peptides were added and cells were infected with […] p24 antigen of X4 or R5 tropic viruses. Supernatants containing progeny virus were taken at every 2-3 days post infection. Virus production was measured by p24 antigen ELISA (NIH AIDS reagent program). The mean p24 antigen values (ng/ml) were derived from triplicate infections±standard deviation.

SIV strains = assay: TZM-bl infection assay, SIV; assay type: cell-based; conditions: effects relatively modest
Procedure: (§1) HIV-1, HIV-2 and SIV molecular clones differing in coreceptor tropism were generated by transient transfection of 293T cells with proviral DNA by the calcium phosphate method (CalPhos™ Mammalian Transfection Kit, Clon-tech). After overnight incubation, the transfection mixture was replaced by DMEM medium supplemented with 10% FCS, and virus stocks were harvested 48 hrs post-transfection. Subsequently, the culture supernatant was centrifuged for 5 min at 3000 rpm to remove cell debris. The resulting virus stock was quantified by p24 (HIV) or p27 (SIV) antigen ELISA. Virus stocks were either used immediately or stored in aliquots at −80° C.
(§2) TZM-bl reporter cells containing the LacZ reporter gene under the control of the HIV-1 promoter were seeded in 96-well F-bottom microtiter plates (Greiner Bio-One). On the following day, the cells were preincubated with various dilutions of the peptide of SEQ ID NO 16 or its derivatives for 1 hour and subsequently infected with HIV-1, HIV-2, and SIV. Infection rates were determined after 2 days using the one-step Tropix Gal-Screen Kit, as recommended by the manufacturer.

CD34+ human stem cells = assay: CXCL12-induced migration of CD34+ human stem cells; assay type: cell-based
Procedure: Peripheral hematopoietic stem (PHS) cells isolated by apheresis of Granulo-cyte colony-stimulating factor (G-CSF) treated individuals were obtained from the Institute of Transfusion Medicine, University Hospital Ulm). Frozen cells were carefully thawed in 1/10 diluted 10% ACD-A buffer (provided by the Institute of Transfusion Medicine) in PBS. 1×10^5/200 μl PHS cells were placed into the upper chamber of transwell plates. Then, 10 nM CXCL12 and/or various concentrations of the peptide of SEQ ID NO 16 or its derivatives in 600 μl culture medium were placed to each well. After 3 h, the chemotaxis was measured using the CellTiter-Glo Luminescent Cell Viability Assay as described above. All values represent mean numbers of migrated cells relative to CXCL12 only treated cells from a triplicate experiment±SD.

DU145 cells = assay: Cancer cell invasion assay; assay type: cell-based
Procedure: Cell invasion of cancer cells was assayed using a Biocoat Matrigel invasion chamber (BD BioCoat™ Matrigel™ Invasion Chamber) as recommended by the manufacturer. 5×10^4 DU145 cells (ATCC) were suspended in 300 μl serum-free RPMI (Gibco) containing 0.1% BSA (KPL) and then added to the upper chamber. 700 μl serum-free medium with or without 100 nM CXCL12 and various concentrations of the peptide of SEQ ID NO 16 were added to each lower chamber. The chambers were incubated for 24 h at 37° C. in a humid atmosphere of 5% CO2/95% air. The non-invading cells were removed from the upper surface of the membrane by scrubbing. Invaded cells toward the bottom of membrane were quantified using the CellTiter-Glo® Luminescent Cell Viability Assay kit as described above.

X4 HIV-2 strains = assay: TZM-bl infection assay, X4 HIV-2; assay type: cell-based; conditions: effects relatively modest
Procedure: as §1, §2

T1 sequence (P70658 whole entry): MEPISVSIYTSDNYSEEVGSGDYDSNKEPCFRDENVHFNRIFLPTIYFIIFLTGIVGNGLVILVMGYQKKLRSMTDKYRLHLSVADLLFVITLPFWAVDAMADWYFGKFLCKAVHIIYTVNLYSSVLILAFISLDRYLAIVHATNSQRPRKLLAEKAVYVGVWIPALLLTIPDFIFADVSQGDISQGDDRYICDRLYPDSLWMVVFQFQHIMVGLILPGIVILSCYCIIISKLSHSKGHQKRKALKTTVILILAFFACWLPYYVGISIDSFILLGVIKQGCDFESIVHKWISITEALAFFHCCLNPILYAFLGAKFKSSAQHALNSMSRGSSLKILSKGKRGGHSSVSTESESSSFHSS

## LVRYTKKVPQVSTPTL [Derivative 408-423, LVRYTKKVPQVSTPTL]
[1]
  cytotoxic effects: did not display cytotoxic effects
Jurkat T cells
  CXCL12-induced migration of Jurkat T cells: suppressed
[2]
  engraftment rates after transplantation of cells from treated mice: increased engraftment rates
Candida albicans
  effects against Candida albicans: only modest effects
CXCR4
  mobilization of progenitor cells and neutrophils into the periphery: significant mobilization
[3]
  Replication of wild-type HIV-1 NL4-3 in PBMCs: markedly suppressed
SIV strains
  infection by SIV strains: inhibits infection
CD34+ human stem cells
  CXCL12-induced migration of CD34+ human stem cells: suppressed
DU145 cells
  tumor cell invasion in vitro: prevented
X4 HIV-2 strains
  infection by X4 HIV-2 strains: inhibits infection
